The results in this text go back to patent publication US8802728B2, “Analgesic compounds, methods, and formulations” (Eli Lilly and Company, priority 2011, dated 2014).

In one assay the test system is rat. The assay can be described thus: Rat tail flick assay (tail flick latency in response to heat). As to conditions: read-out: % MPE (Maximum Possible Effect), tail flick. The assay is classed as in vivo. The source says: The Tail Flick Assay, based upon the methods of D'Amour & Smith (J. Pharmacol. Exp. Therap., 72: 74-79, 1941), is used to measure loss of pain sensation in the rat tail, allowing the experimenter to screen drugs for analgesic effect. Since then, the method has been used in a number of publications. For example, it was used to evaluate the analgesic effect of O-alkyl derivatives of tramadol by Liming Shao and Michael Hewitt etc. (Boiorganic & Medicinal Chemistry Letters, 18:1674-1680, 2008).
A Tail Flick Unit is used to measure tail flick latency in response to heat. The unit consists of an infrared (I.R.) source (50 W bulb) with adjustable intensity that is focused through a flush mounted window on the upper panel of the unit and onto the rat tail. Once I.R. source is focused on the rat tail and turned on, a timer starts. When the thermal threshold for pain is reached and the rat flicks its tail, the I.R source automatically shuts off and the timer stop, displaying the latency time.
On the day of experiment, the animals are tested to determine baseline latency. Each rat is given one test to determine latency to tail flick with a cut off 10 seconds. Baselines are recorded and those animals with a baseline latency of 2-5 seconds are used in the experiment. Animals are divided into several groups according to the baseline latency. The Tail-flick latencies are measured at different timepoints for up to 180 minutes after administration of vehicle or test articles. If treatment group continues to display pain control after 180 minutes, additional measurements are taken every 60 minutes until pain control is no longer observed.
I.R. Source is set at 40 units (determined to elicit tail flick response in desired 2-5 seconds in naïve animals).
Test articles or vehicle are administered by intravenous (IV) injection through the tail vein or by oral gavage at time 0. Animals are gently restrained and held on top of a tail flick unit. The tail is then wiped clean with a cotton square and placed over the I.R. source so that the beam is focused at approximately midway the length of the tail. After the rat is in position, the I.R. source is turned on. When the thermal threshold for pain is reached, the rat flicked its tail and the I.R. source automatically shuts off. Latency time (in seconds) is then recorded.
Data are recorded and graphed as % MPE (Maximum Possible Effect). % MPE is calculated using the following formula: % MPE=[(Test latency−Baseline latency)/(Cut off latency(10 sec.'s)−Baseline latency)]*100
Compounds were administered by the IV route in 20% 2-hydroxypropyl-beta-cyclodextrin (20% HP-β-CD). The dose levels of test article were 2.5, 5, or 20 mg/kg. Examples 2, 3, 13, 40, 77, 78, 114, and Tramadol provided at least 50% MPE at 20 mg/kg. Compounds 5, 8, 17, 105, 107, 148, 158, and 159 provided at least 50% MPE at 5 mg/kg. Compounds 82, 84, and 116 provided at least 50% MPE at 2.5 mg/kg.
Compounds were administered by oral gavage in 0.5% methylcellulose at 20 or 30 mg/kg. Examples 2, 3, 13, 115, and Tramadol provided at least 50% MPE at 30 mg/kg. Compounds 5, 39, 65, 106, and 115 provided at least 50% MPE at 20 mg/kg.

The next assay can be described thus: Unspecified bioassay(s). The settings on record: comparison of the two enantiomers of Example 181.
The mark [1] stands for this setting: oral gavage in 0.5% methylcellulose.

Counter-ions that a name gives are not always drawn. Like-named read-outs stand apart in the source and are kept apart here.

With `COc1cccc([C@@]2(O)C[C@H]3CCC(C3)[C@@H]2CN(C)C)c1` (stereo in doubt) [Example 2, 2-dimethylaminomethyl-3-(3-methoxy-phenyl)-bicyclo[3.2.1]octan-3-ol], in the assay on rat (IV in 20% HP-β-CD), the inhibition in vivo at 20 mg/kg was at least 50%. The inhibition in vivo at 30 mg/kg in the assay on rat (setting [1]) is at least 50%.

For `COc1cc(F)cc([C@@]2(O)C[C@H]3CC[C@H](C3)[C@@H]2CN(C)C)c1` (stereo in doubt) [Example 3, 2-Dimethylaminomethyl-3-(3-fluoro-5-methoxy-phenyl)-bicyclo[3.2.1]octan-3-ol], the inhibition in vivo at 20 mg/kg in the assay with rat (IV in 20% HP-β-CD) was at least 50%. For the same compound, the inhibition in vivo at 30 mg/kg in the assay with rat (setting [1]) was at least 50%.

Consider `COc1ccc(F)c([C@@]2(O)C[C@H]3CC[C@H](C3)[C@@H]2CN(C)C)c1` (stereo in doubt) [Example 5, 2-Dimethylaminomethyl-3-(2-fluoro-5-methoxy-phenyl)-bicyclo[3.2.1]octan-3-ol], for which the inhibition in vivo at 20 mg/kg with rat (setting [1]) is at least 50%.

For `COc1cc(C)cc([C@@]2(O)C[C@H]3CC[C@H](C3)[C@@H]2CN(C)C)c1` (stereo in doubt) [Example 8, 2-Dimethylaminomethyl-3-(3-methoxy-5-methyl-phenyl)-bicyclo[3.2.1]octan-3-ol], the inhibition in vivo at 5 mg/kg in the assay on rat (IV in 20% HP-β-CD) was at least 50%.

`CN(C)C[C@H]1[C@@H]2CC[C@@H](C2)C[C@]1(O)c1cccc(O)c1` (stereo in doubt) [Example 13, 2-Dimethylaminomethyl-3-(3-hydroxy-phenyl)-bicyclo[3.2.1]octan-3-ol]: the inhibition in vivo at 20 mg/kg with rat (IV in 20% HP-β-CD) was at least 50%. Moreover, the inhibition in vivo at 30 mg/kg in the assay on rat (setting [1]) was at least 50%.

`CN(C)C[C@H]1C2CC[C@@H](C2)C[C@]1(O)c1cc(O)ccc1F` (stereo in doubt) [Example 39, 2-dimethylaminomethyl-3-(2-fluoro-5-hydroxy-phenyl)-bicyclo[3.2.1]octan-3-ol]: the inhibition in vivo at 20 mg/kg in the assay on rat (setting [1]) was at least 50%.

Take `CN(C)C[C@H]1[C@@H]2CC[C@@H](C2)C[C@]1(O)c1cc(O)cc(F)c1` (stereo in doubt) [Example 40, 2-Dimethylaminomethyl-3-(3-fluoro-5-hydroxy-phenyl)-bicyclo[3.2.1]octan-3-ol]: in the assay on rat (IV in 20% HP-β-CD), the inhibition in vivo at 20 mg/kg was at least 50%.

With `CN(C)C[C@@H]1C(c2cccc(O)c2)=C[C@@H]2CC[C@H]1C2` (stereo in doubt) [Example 77, 3-(4-dimethylaminomethyl-bicyclo[3.2.1]oct-2-en-3-yl)-phenol], the inhibition in vivo at 20 mg/kg in the assay with rat (IV in 20% HP-β-CD) was at least 50%.

Turning to `COc1cccc(C2=C[C@H]3CC[C@H](C3)[C@@H]2CN(C)C)c1` (stereo in doubt) [Example 78, [3-(3-Methoxy-phenyl)-bicyclo[3.2.1]oct-3-en-2-ylmethyl]-dimethyl-amine], the inhibition in vivo at 20 mg/kg with rat (IV in 20% HP-β-CD) was at least 50%.

As to `CN(C)C[C@@H]1C(c2cc(O)cc(F)c2)=C[C@H]2CC[C@@H]1C2` (stereo in doubt) [Example 82, 3-(4-Dimethylaminomethyl-bicyclo[3.2.1]oct-2-en-3-yl)-5-fluoro-phenol], the inhibition in vivo at 2.5 mg/kg in the assay with rat (IV in 20% HP-β-CD) was at least 50%.

On to `CN(C)C[C@@H]1C(c2cc(O)ccc2F)=C[C@H]2CC[C@@H]1C2` (stereo in doubt) [Example 84, 3-(4-Dimethylaminomethyl-bicyclo[3.2.1]oct-2-en-3-yl)-4-fluoro-phenol], for which the inhibition in vivo at 2.5 mg/kg in the assay with rat (IV in 20% HP-β-CD) was at least 50%.

On to `CN(C)C[C@@H]1C(c2cccc(OC(=O)C(C)(C)C)c2)=C[C@@H]2CC[C@H]1C2` (stereo in doubt) [Example 105, 2,2-dimethyl-propionic acid 3-(4-dimethylaminomethyl-bicyclo[3.2.1]oct-2-en-3-yl)-phenyl ester], for which the inhibition in vivo at 5 mg/kg with rat (IV in 20% HP-β-CD) is at least 50%.

Regarding `CN(C)C[C@@H]1C(c2cccc(OC(=O)c3ccccc3)c2)=C[C@H]2CC[C@@H]1C2` (stereo in doubt) [Example 106, Benzoic acid 3-(4-dimethylaminomethyl-bicyclo[3.2.1]oct-2-en-3-yl)-phenyl ester], in the assay on rat (setting [1]), the inhibition in vivo at 20 mg/kg was at least 50%.

In the case of `CN(C)C[C@H]1[C@H]2CC[C@H](C2)C[C@H]1c1cccc(O)c1` (stereo in doubt) [Example 114, 3-(2-dimethylaminomethyl-bicyclo[3.2.1]oct-3-yl)-phenol], in the assay with rat (IV in 20% HP-β-CD), the inhibition in vivo at 20 mg/kg was at least 50%.

`COc1cccc([C@@H]2C[C@H]3CC[C@H](C3)[C@@H]2CN(C)C)c1` (stereo in doubt) [Example 115, [3-(3-methoxy-phenyl)-bicyclo[3.2.1]oct-2-ylmethyl]-dimethyl-amine]: in the assay on rat (setting [1]), the inhibition in vivo at 20 mg/kg was at least 50% and the inhibition in vivo at 30 mg/kg was at least 50%.

As to `CN(C)C[C@H]1[C@@H]2CC[C@@H](C2)C[C@H]1c1cc(O)cc(F)c1` (stereo in doubt) [Example 116, 3-(2-dimethylaminomethyl-bicyclo[3.2.1]oct-3-yl)-5-fluoro-phenol], the inhibition in vivo at 2.5 mg/kg with rat (IV in 20% HP-β-CD) is at least 50%.

For `COc1cccc([C@]2(O)[C@@H](CN(C)C)CC[C@@H]3C[C@@H]32)c1` (stereo in doubt) [Example 148, 3-Dimethylaminomethyl-2-(3-methoxy-phenyl)-bicyclo[4.1.0] heptan-2-ol], the inhibition in vivo at 5 mg/kg with rat (IV in 20% HP-β-CD) was at least 50%.

For the compound `CN(C)C[C@H]1CC[C@@H]2C[C@@H]2[C@]1(O)c1cc(O)ccc1F` (stereo in doubt) [Example 158, 3-Dimethylaminomethyl-2-(2-fluoro-5-hydroxy-phenyl)-bicyclo[4.1.0] heptan-2-ol], the inhibition in vivo at 5 mg/kg in the assay with rat (IV in 20% HP-β-CD) is at least 50%.

Regarding `Cc1cc(O)cc([C@]2(O)[C@@H](CN(C)C)CC[C@@H]3C[C@@H]32)c1` (stereo in doubt) [Example 159, 3-Dimethylaminomethyl-2-(3-hydroxy-5-methyl-phenyl)-bicyclo[4.1.0] heptan-2-ol], the inhibition in vivo at 5 mg/kg in the assay with rat (IV in 20% HP-β-CD) is at least 50%.

For the compound `CN(C)C[C@H]1[C@H]2CC[C@H](C2)C[C@]1(O)c1cccc(O)c1` [(+)-Enantioisomers, (+)-(1S,2R,3R,5R)-2-((dimethylamino)methyl)-3-(3-hydroxyphenyl)bicyclo[3.2.1]octan-3-ol], the “biological activity in bioassay(s)” value in the assay “Unspecified bioassay(s)” is reported as “better biological activity than (−)-enantioisomer”.

With `COc1ccc(F)c([C@@]2(O)C[C@H]3CC[C@H](C3)[C@@H]2CN(C)C)c1` [Example 17, 2-Dimethylamino-methyl-3-(2-fluoro-5-methoxy-phenyl)-bicyclo[3.2.1]octan-3-ol hydrochloride], the inhibition in vivo at 5 mg/kg in the assay with rat (IV in 20% HP-β-CD) is at least 50%.

Take `CN(C)C[C@H]1C2CC[C@@H](C2)C[C@]1(O)c1cc(OC(=O)C(C)(C)C)ccc1F` [Example 65, 2,2-dimethyl-propionic acid 3-(2-dimethylaminomethyl-3-hydroxy-bicycle[3.2.1]oct-3-yl)-4-fluoro-phenyl ester]: the inhibition in vivo at 20 mg/kg in the assay with rat (setting [1]) was at least 50%.

With `CN(C)C[C@@H]1C(c2cc(F)cc(OC(=O)C(C)(C)C)c2)=C[C@H]2CC[C@@H]1C2` [Example 107, 2,2-Dimethyl-propionic-acid 3-(4-dimethyl-aminomethyl-bicyclo[3.2.1]oct-2-en-3-yl)-5-fluoro-phenyl ester], in the assay on rat (IV in 20% HP-β-CD), the inhibition in vivo at 5 mg/kg is at least 50%.

As for `COc1cccc(C2(O)CCCCC2CN(C)C)c1` (centres unmarked) [Tramadol, reference compound], in the assay on rat (IV in 20% HP-β-CD), the inhibition in vivo at 20 mg/kg is at least 50%. Besides, in the assay with rat (setting [1]), the inhibition in vivo at 30 mg/kg is at least 50%.
